# Publication PMC6018746, “Activation of the p53-MDM4 regulatory axis defines the anti-tumour response to PRMT5 inhibition through its role in regulating cellular splicing” (Scientific Reports, 2018)
# Values joined by “and” are separate entries in the source; they are usually repeats but may differ in a detail not shown here. Equal values may be shown once. Read-outs that look alike come from different tables or passages of the source.
# Tested on: panel of hematologic and solid cancer lines
# Assay: 6-day in vitro growth/death assay
# Assay type: cell-based, human
# Settings: for IC50: read-out: gIC50
# Protocol: To further develop these molecules and to guide clinical strategy, it was necessary to understand sensitivity in preclinical models by assessing the anti-tumour activity of the PRMT5 inhibitors in various cancers.
# Cell lines were obtained from ATCC or DSMZ and were grown in recommended medium, which was most frequently RPMI-1640 containing 10% FBS. Cell line proliferation assays, Western blotting, qRT-PCR, and cell cycle analyses were performed as described previously[27],[28]. Antibody and gene expression reagents are as described in Supplementary Table 16. All studies were conducted in accordance with the GSK Policy on the Care, Welfare and Treatment of Laboratory Animals and were reviewed by the Institutional Animal Care and Use Committee either at GSK or by the ethical review process at the institution where the work was performed. Detailed descriptions of all methods can be found in the Supplemental Materials.
structure (smiles),measurement,setting,value
CC(=O)N1CCC(Nc2cc(C(=O)NC[C@H](O)CN3CCc4ccccc4C3)ncn2)CC1 [GSK3326595],IC50,5637,69 nM
same,IC50,HCC70,130 nM
same,IC50,HCC1143,246 nM
same,IC50,HCC1806,98 nM
same,IC50,"Homo sapiens, 5637",69.3 nM
same,IC50,"Homo sapiens, HCC70, HCC70",130 nM
same,IC50,"Homo sapiens, HCC1143, HCC1143",246 nM
same,IC50,"Homo sapiens, HCC1806, HCC1806",97.6 nM
same,IC50,"Homo sapiens, HCC1954, HCC1954",79.2 nM
same,IC50,"Homo sapiens, HT-1376, HT-1376",17600 nM
same,IC50,"Homo sapiens, J82, J82",29300 nM
same,IC50,"Homo sapiens, JM1, JM1",79 nM
same,IC50,"Homo sapiens, KMS-11, KMS-11",66.5 nM
same,IC50,"Homo sapiens, LN-229, LN-229",254 nM
same,IC50,"Homo sapiens, LP-1, LP1",1940 nM
same,IC50,"Homo sapiens, MCF7, MCF-7",61.7 nM
same,IC50,"Homo sapiens, MDA-MB-231, MDA-MB-231",544 nM
same,IC50,"Homo sapiens, MDA-MB-453, MDA-MB-453",28.7 nM
same,IC50,"Homo sapiens, MDA-MB-468, MDA-MB-468",56.5 nM
same,IC50,"Homo sapiens, MINO",130 nM
same,IC50,"Homo sapiens, Maver1, MAVER-1",84.9 nM
same,IC50,"Homo sapiens, NCI-H526, NCI-H526",275 nM
same,IC50,"Homo sapiens, NCI-H526-R",344 nM
same,IC50,"Homo sapiens, NU-DHL-1, NU-DHL-1",333 nM
same,IC50,"Homo sapiens, NU-DUL-1, NU-DUL-1",333 nM
same,IC50,"Homo sapiens, PER-403, PER-403",38.3 nM
same,IC50,"Homo sapiens, PER-624",524 nM
same,IC50,"Homo sapiens, PER-704",658 nM
same,IC50,"Homo sapiens, Pfeiffer",421 nM
same,IC50,"Homo sapiens, RCK8, RCK8",529 nM
same,IC50,"Homo sapiens, RL",11.8 nM
same,IC50,"Homo sapiens, RPMI-8226, RPMI-8226",21.7 nM
same,IC50,"Homo sapiens, RPMI-8226-DOX",29300 nM
same,IC50,"Homo sapiens, RPMI-8226-LR5",286 nM
same,IC50,"Homo sapiens, SCaBER",198 nM
same,IC50,"Homo sapiens, SF-295, SF295",24700 nM
same,IC50,"Homo sapiens, SF-539, SF539",60.9 nM
same,IC50,"Homo sapiens, SK-BR-3, SK-BR-3",73.1 nM
same,IC50,"Homo sapiens, SU-DHL10, SU-DHL-10",36.7 nM
same,IC50,"Homo sapiens, SU-DHL-2, SU-DHL-2",34.1 nM
same,IC50,"Homo sapiens, SU-DHL-4, SU-DHL-4",492 nM
same,IC50,"Homo sapiens, SU-DHL-5, SU-DHL-5",28.3 nM
same,IC50,"Homo sapiens, SU-DHL-6, SU-DHL-6",3.9 nM
same,IC50,"Homo sapiens, SU-DHL-8, SU-DHL-8",52.5 nM
same,IC50,"Homo sapiens, SU-DHL-16, SU-DHL-16",98.9 nM
same,IC50,"Homo sapiens, SW780, SW-780",290 nM
same,IC50,"Homo sapiens, T-24, T24",765 nM
same,IC50,"Homo sapiens, U2932, U2932",52.5 nM
same,IC50,"Homo sapiens, U-87 MG",39.6 nM
same,IC50,"Homo sapiens, U-2940, U2940",14800 nM
same,IC50,"Homo sapiens, UMUC3, UM-UC-3",29300 nM
same,IC50,"Homo sapiens, WSU-NHL",8.4 nM
same,IC50,"Homo sapiens, WSUDLCL2, WSU-DLCL2",81.7 nM
same,IC50,"Homo sapiens, ZR-75-1, ZR-75-1",11000 nM
same,IC50,J82,29300 nM
same,IC50,KMS-11,66 nM
same,IC50,LN-229,254 nM
same,IC50,LP1,1940 nM
same,IC50,MAVER-1,85 nM
same,IC50,MDA-MB-231,544 nM
same,IC50,MDA-MB-453,29 nM
same,IC50,MDA-MB-468,57 nM
same,IC50,MINO,130 nM and > 100 nM
same,IC50,NCI-H526-R,344 nM
same,IC50,NCI-H526,275 nM
same,IC50,PER-403,38 nM
same,IC50,PER-624,524 nM
same,IC50,PER-704,658 nM
same,IC50,RCK8,529 nM
same,IC50,RL,14 nM
same,IC50,SF295,24700 nM
same,IC50,SF539,61 nM
same,IC50,SK-BR-3,73 nM
same,IC50,SU-DHL-2,28 nM
same,IC50,SU-DHL-4,492 nM
same,IC50,SU-DHL-6,4 nM
same,IC50,SU-DHL-8,53 nM
same,IC50,SU-DHL-10,54 nM
same,IC50,SU-DHL-16,99 nM
same,IC50,ScaBER,198 nM
same,IC50,T24,765 nM
same,IC50,U2932,53 nM
same,IC50,U2940,10200 nM
same,IC50,U-87MG,40 nM
same,IC50,WSU-DLCL2,82 nM
same,IC50,WSU-NHL,8 nM
same,gIC100,Z-138,80.7 nM
